# Measured values as given in US20150182605A1, “Ultra-Low Dose Lysostaphin for Treating MRSA” (priority 2013, published 2015).
# Key:
# SA5 (ATCC 49521) = experiment: Effect of antibiotics and lysostaphin on growth of SA5 (% T, 96-well); format: cell-based, Staphylococcus aureus; settings: for inhibition and killing of the staph by antibiotic alone: antibiotic alone at 25 or 12.5 mg/ml, 5 and 22 hours
# Protocol: It was determined whether low levels of lysostaphin would act synergistically with Nafcillin or Oxacillin to kill an SA5 (ATCC 49521). The study was performed in a 96-well dish to allow titration of lysostaphin and antibiotics. The end point was % T. Plating of bacteria from the assay plate was not done.
# Fifty μl of SA5 (ATCC 49521) was reconstituted from a frozen stock and grown overnight on a blood agar plate at 37° C. Bacteria were transferred from the blood agar plate (approximately 25% of the lawn) into 30 mls of TSB and grown for 2 hours at 37° C. on a rotating shaker set at 250 rpm. […] A 1:4 dilution of this suspension in TSB gave a % T of ˜50% in a 96 well dish.
# For the assay, lysostaphin (Sigma Cat L7386; lot 063M4011V; 3387.5 units/ml stock in water) was diluted in three-fold dilutions (in TSB) from 3 units/ml (row A) to 0.0123 units/ml (row G) in 50 μl/well. The wells in row H received TSB alone. This plate was designated the assay plate. In a separate 96-well plate (i.e. the dilution plate), Nafcillin (Sigma Cat N3269; lot SLBF8230V, 50 mg/ml in water) was diluted in TSB to 25 mg/ml and a second dilution of 12.5 mg/ml was also prepared (columns 1 and 2 of the dilution plate). Oxacillin (Sigma Cat 01002; lot SLBC9948V; 50 mg/ml in water) was diluted to 25 mg/ml in TSB and a second dilution of 12.5 mg/ml was also prepared (columns 4 and 5 of the dilution plate).
# Fifty μl of the antibiotic solutions were transferred to the corresponding wells of the assay plate containing the lysostaphin solution. 50 μl of TSB alone was transferred to columns 3 and 6 (i.e. no antibiotic controls) of the assay plate. The combination of antibiotics and lysostaphin yielded a volume of 100 μl. 125 μl of S. aureus 49521, diluted 1:2 in TSB was then added to all wells of the plate, except wells H1, H2, H4 and H5, which served as the blank well for determining the % T. After addition of the bacteria, and between each determination of the % T, the plate was incubated at 37° C. with gentle rotation (˜50 rpm). The % T was then determined at 2 and 15 minutes after addition of the bacteria, and again at 5 hours and 22 hours after addition of the bacteria.
# SA5 = experiment: % T lysis assay of SA5 in 96-well configuration; format: cell-based, Staphylococcus aureus; settings: 0.1 μg/ml; for change in % T / killing: neat solution of SA5, 10 minutes at 37° C. (FIG. 4)
# Protocol: A second assay was performed in which the SA5 and lysostaphin were tested in a 96-well configuration. For this assay, 100 μl of the SA5 solution was added to wells followed by 100 μl of the lysostaphin solution. % T was obtained at TO and the plate incubated at 37° C. for 10 minutes with gentle rotation. The % T was obtained and the results compared.
# [1] = system: S. aureus type 5 (ATCC 49521); experiment: % T (turbidity) lysis assay of S. aureus type 5 suspension in tubes; format: cell-based, Staphylococcus aureus; settings: 10 minutes at 37° C.
# Protocol: 50 μl of S. aureus type 5 (ATCC 49521) was plated onto blood agar plates and incubated overnight. The resulting bacterial lawn was transferred to 30 mls of TSB (tryptic soy broth; Remel cat 112740) and incubated at 37° C. for about 60 minutes at 225 rpm. The percent transmission (% T) of the bacterial suspension following incubation was about 7%. The % T was adjusted to 53% by addition of 100 μl of bacterial suspension to 4500 μl of TSB (in five individual tubes) and the % T was measured in each tube. An additional tube contained TSB alone. Tube #1 received no lysostaphin. Tube #2 was designated to receive 550 μl of recombinant lysostaphin, but the lysostaphin was erroneously added to Tube #3, and thus, Tube #2 was discarded. Tube #3 received 550 μl recombinant lysostaphin (from a 2,000 μg/ml stock solution) for a final concentration of about 220 μg/ml (this tube erroneously received lysostaphin dose intended for tube #2 (i.e. 500 μl of lysostaphin stock) plus the 50 μl of lysostaphin originally intended for this tube. Tube #4 received 500 μl of natural lysostaphin from S. staphylolyticus (from a 2,000 μg/ml stock solution) for a final concentration of about 200 μg/ml. Tube #5 received 50 μl of natural lysostaphin from S. staphylolyticus (from a 2,000 μg/ml stock solution) for a final concentration of about 20 μg/ml. The tubes were vortexed, incubated at 37° C. for 10 minutes at 150 rpm and the % T for each determined (see FIG. 3 which is summarized in Table 2). An increase in the % T indicates killing of bacteria. Both lysostaphins were highly likely active against this SA5.
# S. aureus cells [2] = settings: from COA; cited from earlier work
# [3] = system: anti-lysostaphin antibodies; experiment: Assay of mouse sera on lysostaphin-coated plates after immunization; format: binding; settings: gamma-specific detection, compared with the other lysostaphin as coating antigen, regardless of the immunogen
# Protocol: Assay of mouse sera on plates coated with lysostaphin from simulans expressed as recombinant in E coli and coated with natural lysostaphin from S. staphylolyticus. Mice received a primary immunization (subcutaneous) with 10 μg recombinant lysostaphin from E. coli (Sigma-Aldrich) (animal numbers 8603, 8604) or 10 μg of natural lysostaphin from S. staphylolyticus (Sigma-Aldrich) (animal numbers 8621-8623). Primary immunization was administered and boosted about three weeks later. No adjuvant was used for the immunizations. Serum samples were tested using gamma-specific detection (FIGS. 1 and 2). Bars represent binding seen with normal serum (first bar), serum after the first injection (second bar), and serum after the boost injection three weeks later (third and in most cases largest bar). The results on wells coated with simulans lysostaphin (FIG. 1) were stronger than the results on wells coated with staphylolyticus lysostaphin (FIG. 2), regardless of the immunogen. Mouse 8621 was poorly reactive on both coating antigens. Note that each graph is scaled to 1.500 on the y-axis for comparison purposes.
# S. aureus cells [4] = experiment: Enzymatic activity per certificate of analysis (COA); format: biochemical, Staphylococcus aureus; settings: from COAs of both products
# Protocol: Doses may also be as international units. One international unit (IU) is about 3.1 μg and will reduce the turbidity (A620) of a suspension of S. aureus cells from 0.250 to 0.125 in 10 minutes at pH 7.5 at 37° C. in a 6.0 ml reaction mixture.
compound,measurement,setting,value
"CCOc1ccc2ccccc2c1C(=O)N[C@@H]1C(=O)N2[C@@H]1SC(C)(C)[C@@H]2C(=O)O [Nafcillin, reference compound]",inhibition and killing of the staph by antibiotic alone,SA5 (ATCC 49521),ineffective rapid inhibition and killing
"Cc1onc(-c2ccccc2)c1C(=O)N[C@@H]1C(=O)N2[C@@H]1SC(C)(C)[C@@H]2C(=O)O [Oxacillin, reference compound]",inhibition and killing of the staph by antibiotic alone,SA5 (ATCC 49521),ineffective rapid inhibition and killing
lysostaphin: lysostaphin (Sigma Cat L7386; lot 063M4011V; 3387.5 units/ml stock in water); 27 kD glycylglycine endopeptidase,synergy of lysostaphin with the antibiotics,"SA5 (ATCC 49521); lysostaphin 0.0123 units/ml with Nafcillin or Oxacillin, 5 to 22 hours",acted synergistically
same,% T,"SA5 (ATCC 49521); lysostaphin 0.0123 units/ml without antibiotic, 5 hours, FIG. 8",97.0 % T
same,% T,"SA5 (ATCC 49521); lysostaphin 0.0123 units/ml without antibiotic, 5 hours, FIG. 11",98.0 % T
same,% T,"SA5 (ATCC 49521); lysostaphin 0.0123 units/ml without antibiotic, 22 hours, FIG. 8",75.4 % T
same,% T,"SA5 (ATCC 49521); lysostaphin 0.0123 units/ml without antibiotic, 22 hours, FIG. 11",60.2 % T
same,% T,"SA5 (ATCC 49521); lysostaphin 0.0123 units/ml, within 5 hours",> 95 % T
same,% T,"SA5 (ATCC 49521); lysostaphin at concentrations higher than 0.0123 units/ml, at 5 (not shown)",> 95%
same,% T,"SA5 (ATCC 49521); most concentrations of lysostaphin, without antibiotics, after 22 hours",below 70%
natural lysostaphin: natural lysostaphin from S. staphylolyticus (Sigma-Aldrich),change in % T,SA5; SA5 at a dilution of 1:2 vs neat SA5 (FIG. 5),greater change
same,change in % T / killing,SA5,increased only slightly
same,Ending % T,"[1]; 20 μg/ml, tube 5",95.0 % T
same,Ending % T,"[1]; 200 μg/ml, tube 4",94.6 % T
recombinant lysostaphin: lysostaphin from simulans expressed as recombinant in E. coli (Sigma-Aldrich),enzymatic activity,S. aureus cells [2],"greater than 3,000 units per mg"
same,binding of mouse serum antibodies to the coated lysostaphin,[3],markedly higher binding
same,binding of mouse serum antibodies to the coated lysostaphin,[3]; listed as simulans lysostaphin,stronger
same,activity relative to natural lysostaphin,S. aureus cells [4],6-7 fold
same,change in % T / killing,SA5,remained strong
same,Ending % T,"[1]; 220 μg/ml, tube 3, increase in % T indicates killing",94.0 % T
